Broadly, the inhibition is the change of the read-out against control, counted positive when it falls. The MIC is the smallest concentration in the dilution series that meets the test's criterion for growth inhibition.

In brackets after ≈: the same amount, converted by molar mass.

In the first assay the test system is Mycobacterium tuberculosis. Kind of assay: Antimycobacterial activity against Mycobacterium tuberculosis H37Rv assessed as inhibition at 20 uM. In kind it is functional.
`C=C[C@]1(C)C[C@@H](OC(=O)CN(CC)Cc2ccccc2)[C@]2(C)[C@H](C)CC[C@]3(CCC(=O)[C@H]32)[C@@H](C)[C@@H]1O`: the inhibition at 20 µM came out at 100%.

`C=C[C@]1(C)C[C@@H](OC(=O)CN(CC)Cc2cccc(Cl)c2)[C@]2(C)[C@H](C)CC[C@]3(CCC(=O)[C@H]32)[C@@H](C)[C@@H]1O`: the inhibition at 20 µM is 99%.

`C=C[C@]1(C)C[C@@H](OC(=O)CN(CC)Cc2cccc(C)c2)[C@]2(C)[C@H](C)CC[C@]3(CCC(=O)[C@H]32)[C@@H](C)[C@@H]1O`: the inhibition at 20 µM was found to be 16%. With `C=C[C@]1(C)C[C@@H](OC(=O)CN(CC)Cc2ccc(N(CC)CC)cc2)[C@]2(C)[C@H](C)CC[C@]3(CCC(=O)[C@H]32)[C@@H](C)[C@@H]1O`, the inhibition at 20 µM came to 99%. On to `C=C[C@]1(C)C[C@@H](OC(=O)CN(CC)Cc2ccc(Oc3ccccc3)cc2)[C@]2(C)[C@H](C)CC[C@]3(CCC(=O)[C@H]32)[C@@H](C)[C@@H]1O`, for which the inhibition at 20 µM amounted to 100%. As to `C=C[C@]1(C)C[C@@H](OC(=O)CN(Cc2ccccc2)Cc2ccc(Oc3ccccc3)cc2)[C@]2(C)[C@H](C)CC[C@]3(CCC(=O)[C@H]32)[C@@H](C)[C@@H]1O`, the inhibition at 20 µM was 101%. Same read-out and setting: in the case of `C=C[C@]1(C)C[C@@H](OC(=O)CN(Cc2ccc(Oc3ccccc3)cc2)C2CCCCC2)[C@]2(C)[C@H](C)CC[C@]3(CCC(=O)[C@H]32)[C@@H](C)[C@@H]1O` it was 88%; in that of `C=C[C@]1(C)C[C@@H](OC(=O)CN(N2CCCCC2)S(=O)(=O)c2ccc(N)cc2)[C@]2(C)[C@H](C)CC[C@]3(CCC(=O)[C@H]32)[C@@H](C)[C@@H]1O`, 60%.

The test system of the next assay is Mycobacterium tuberculosis. The assay can be described thus: Antimycobacterial activity against Mycobacterium tuberculosis H37Rv assessed as complete inhibition of proliferation. In kind it is functional.
`C=C[C@]1(C)C[C@@H](OC(=O)CN(CC)Cc2ccc(N(CC)CC)cc2)[C@]2(C)[C@H](C)CC[C@]3(CCC(=O)[C@H]32)[C@@H](C)[C@@H]1O`: the MIC came to 7.2 µM (≈ 4.08 µg/mL).
